Measurements taken from US6403149B1, “Fluorinated ketones as lubricant deposition solvents for magnetic media applications” (3M Innovative Properties Company, priority 2001, dated 2002).
Where two headings read alike, the source gives them in different places.

Columns and labels:
[1] = Solubility/miscibility of perfluoropolyether lubricants (Z-DOL, AM 3001) and phosphazene additive X-1P in fluorinated solvents
Protocol: The term “miscible” denotes that the lubricant and fluorinated solvent were miscible in all proportions, forming an essentially clear solution. Any number entry denotes solubility in the fluorinated solvent as percent by weight. The term “NT” denotes that the compound was not tested for solubility with the solvent.
Z-DOL was evaluated for solubility in the following fluorinated ketones: […]

[2] = Solubility of impurities (dioctyl phthalate, silicone oils) in fluorinated solvents; assay type: physicochemical
Protocol: In Comparative Examples C6-C10, the same “impurities” were evaluated for solubility in C6F14 (a perfluorocarbon), C4F9OCH3 (a hydrofluoroether), CF3CFHCFHCF2CF3 (a hydrofluorocarbon), C3F5HCl2 (a hydrochlorofluorocarbon), and […] (a chlorofluorocarbon), all fluorinated solvents outside the scope of this invention.
The term “NT” denotes that the impurity was not tested in the fluorinated solvent.

[3] = Short-term inhalation tests with rats (acute toxicity); assay type: in vivo
Excerpt: (§1) Additionally, the fluorinated ketones have low toxicity.

[4] = Cardiac sensitization no-effect level; details: in vivo, inhaled
Excerpt: as §1

[5] = solute FOMBLIN AM 3001 perfluoropolyether lubricant, miscible = miscible in all proportions
[6] = solute Z-DOL perfluoropolyether lubricant, miscible = miscible in all proportions, essentially clear solution
[7] = solute X-1P cyclic phosphazene additive, miscible = miscible in all proportions

Molecule: O=C(C(F)(F)C(F)(F)C(F)(F)F)C(F)(C(F)(F)F)C(F)(F)F [n-C3F7C(O)CF(CF3)2, 1,1,1,2,4,4,5,5,6,6,6-undecafluoro-2-trifluoromethylhexan-3-one]
- Solubility of AM 3001 in the solvent [1, 5]: miscible
- Solubility of Z-DOL in the solvent [1, 6]: miscible

Molecule: FC(F)(F)C(F)(F)C(F)(F)C(F)(F)C(F)(F)C(F)(F)F [C6F14, perfluorohexane]
- Solubility of AM 3001 in the solvent [1, 5]: miscible
- Solubility of Z-DOL in the solvent [1, 6]: miscible

Molecule: FC(C(F)C(F)(F)C(F)(F)F)C(F)(F)F (stereo not shown) [CF3CFHCFHCF2CF3, 1,1,1,2,3,4,4,5,5,5-decafluoropentane]
- Solubility of AM 3001 in the solvent [1, 5]: miscible
- Solubility of X-1P in the solvent [1, 7]: miscible
- Solubility of Z-DOL in the solvent [1, 6]: miscible

Molecule: dichloropentafluoropropane [C3F5HCl2]
- Solubility of AM 3001 in the solvent [1, 5]: miscible
- Solubility of X-1P in the solvent [1, 7]: miscible
- Solubility of Z-DOL in the solvent [1, 6]: miscible

Molecule: O=C(C(F)(F)C(F)(F)F)C(F)(C(F)(F)F)C(F)(F)F [CF3CF2C(O)CF(CF3)2, 1,1,1,2,4,4,5,5,5-nonafluoro-2-trifluoromethyl-pentan-3-one]
- Solubility of AM 3001 in the solvent [1]: miscible
- Solubility of X-1P in the solvent [1]: 0.03 percent by weight
- Solubility of Z-DOL in the solvent [1]: miscible
- Solubility of DOP in the solvent [2]: 0.024
- Solubility of Silicone 100 cst in the solvent [2]: <0.01
- Solubility of Silicone 1000 cst in the solvent [2]: <0.01
- Solubility of Silicone 10000 cst in the solvent [2]: <0.01
- Acute toxicity [3]: low acute toxicity
- "no-effect" level for cardiac sensitization [4]: > 150,000 ppm

Molecule: COC(F)(F)C(F)(F)C(F)(F)C(F)(F)F [C4F9OCH3, perfluorobutyl methyl ether]
- Solubility of AM 3001 in the solvent [1, 5]: miscible
- Solubility of X-1P in the solvent [1, 7]: miscible
- Solubility of Z-DOL in the solvent [1, 6]: miscible

Molecule: O=C(C(F)(C(F)(F)F)C(F)(F)F)C(F)(C(F)(F)F)C(F)(F)F [(CF3)2CFC(O)CF(CF3)2, 1,1,1,2,4,5,5,5,6,6,6-octafluoro-2,4-bis(trifluoromethyl)pentan-3-one]
- Solubility of AM 3001 in the solvent [1, 5]: miscible
- Solubility of X-1P in the solvent [1, 7]: 0.03 percent by weight
- Solubility of Z-DOL in the solvent [1, 6]: miscible
